Assay results: patent US10654895B2, “Polypeptide, DNA molecule encoding the polypeptide, vector, preparation method and use” (WUHAN MORE BIOTECHNOLOGY CO., LTD., priority 2013, dated 2020)
No end group written: not given here.

Assays:
[1] = tested on: Escherichia coli (E. coli) ATCC25922; conditions: >25 means greater than or equal to 50 μg/mL
[2] = tested on: Staphylococcus aureus (RA) ATCC25923; conditions: for MIC: Staphylococcus aureus (RA) ATCC25923, >25 means greater than or equal to 50 μg/mL; for inhibitory effect / antiseptic activity in words: against Staphylococcus aureus (RA) ATCC25923 and/or Escherichia coli ATCC25922

Substance | MIC [1] | MIC [2] | inhibitory effect / antiseptic activity in words [2]
FIRIARLLEIF [Ctryamp polypeptide mutant 1, FIRIARLLEIF] | >25 µg/mL | >25 µg/mL | no antiseptic activity
FIRIADLLRIF [Ctryamp polypeptide mutant 2, FIRIADLLRIF] | >25 µg/mL | 25 µg/mL | –
ARLLRIFFIRIARLLRIF [Ctryamp polypeptide mutant 27, ARLLRIFFIRIARLLRIF] | >25 µg/mL | >25 µg/mL | –
FIRRLLRIF [Ctryamp polypeptide mutant 12, FIRRLLRIF] | 25 µg/mL | 12.5 µg/mL | –
FRIARLLRIF [Ctryamp polypeptide mutant 9, FRIARLLRIF] | 6.25 µg/mL | 12.5 µg/mL | –
FIRLRIF [Ctryamp polypeptide mutant 14, FIRLRIF] | >25 µg/mL | >25 µg/mL | –
FIRKIARLLRIF [Ctryamp polypeptide mutant 19, FIRKIARLLRIF] | 6.25 µg/mL | 6.25 µg/mL | –
RLLRIFFIRIARLLRIF [Ctryamp polypeptide mutant 26, RLLRIFFIRIARLLRIF] | >25 µg/mL | >25 µg/mL | –
IARLLRIFFIRIARLLRIF [Ctryamp polypeptide mutant 28, IARLLRIFFIRIARLLRIF] | >25 µg/mL | >25 µg/mL | –
IRIARLLRIFFIRIARLLRIF [Ctryamp polypeptide mutant 30] | >25 µg/mL | >25 µg/mL | –
RLLRIF [Ctryamp polypeptide mutant 15, RLLRIF] | >25 µg/mL | >25 µg/mL | –
RIFFIRIARLLRIF [Ctryamp polypeptide mutant 23, RIFFIRIARLLRIF] | 12.5 µg/mL | 12.5 µg/mL | –
FIRRLRIF [Ctryamp polypeptide mutant 13, FIRRLRIF] | >25 µg/mL | >25 µg/mL | –
FIKIGKILKIF [Ctryamp polypeptide mutant 7, FIKIGKILKIF] | 12.5 µg/mL | >25 µg/mL | –
FFIRIARLLRIF [Ctryamp polypeptide mutant 21, FFIRIARLLRIF] | 25 µg/mL | 12.5 µg/mL | –
FIKRIARLLRIF [Ctryamp polypeptide mutant 20, FIKRIARLLRIF] | 6.25 µg/mL | 6.25 µg/mL | –
FIRARLLRIF [Ctryamp polypeptide mutant 10, FIRARLLRIF] | >25 µg/mL | >25 µg/mL | –
IFFIRIARLLRIF [Ctryamp polypeptide mutant 22, IFFIRIARLLRIF] | >25 µg/mL | 12.5 µg/mL | –
RIARLLRIFFIRIARLLRIF [Ctryamp polypeptide mutant 29] | >25 µg/mL | >25 µg/mL | –
GFIRIARLLRIF [Ctryamp polypeptide mutant 16, GFIRIARLLRIF] | 6.25 µg/mL | 6.25 µg/mL | –
FIRIARLLKRIF [Ctryamp polypeptide mutant 18, FIRIARLLKRIF] | 12.5 µg/mL | 6.25 µg/mL | –
LRIFFIRIARLLRIF [Ctryamp polypeptide mutant 24, LRIFFIRIARLLRIF] | >25 µg/mL | 25 µg/mL | –
FIRIARLLRKIF [Ctryamp polypeptide mutant 17, FIRIARLLRKIF] | 12.5 µg/mL | 6.25 µg/mL | –
Ac-FIRIARLLRIF [Ctryamp polypeptide mutant 32, Ac-FIRIARLLRIF] | 25 µg/mL | 6.25 µg/mL | still have the antiseptic activity
FIRIARLRIF [Ctryamp polypeptide mutant 8, FIRIARLRIF] | 12.5 µg/mL | 25 µg/mL | –
FIKIGKLLKIF [Ctryamp polypeptide mutant 6, FIKIGKLLKIF] | 12.5 µg/mL | 25 µg/mL | –
